From the RepoRT retention time repository (doi:10.1021/acs.jafc.0c00879)

Experiment: RP, Waters ACQUITY UPLC HSS T3, 150 × 2.1 mm, 1.8 µm, 40 °C, 0.28 mL/min, estimated dead time 1.2 min; A: water + 0.1% formic acid; B: methanol + 0.1% formic acid; gradient (min/%B) 0/0 1/0 3/10 18/40 21/100 25.5/100
Settings: stereoisomer not certain
`O=c1oc2c(O)c(O)cc3c(=O)oc4c(O)c(O)cc1c4c23` gave an LC retention time of 19.8 min.
With `CC(C)C(N)C(=O)O` (stereo not drawn) the LC retention time was 2.07 min.
In the case of `COc1cc(-c2oc3cc(O)cc(O)c3c(=O)c2O)cc(OC)c1O`, the LC retention time is reported as 21.3 min.
Work on `O=C(C=Cc1ccc(O)cc1)OCC1OC(Oc2cc3c(O)cc(O)cc3[o+]c2-c2cc(O)c(O)c(O)c2)C(O)C(O)C1O` (stereo not drawn) yielded an LC retention time of 20 min.
In the case of `COc1cc(-c2[o+]c3cc(O)cc(O)c3cc2OC2OC(COC(C)=O)C(O)C(O)C2O)cc(O)c1O` (stereo not drawn), the LC retention time is reported as 18.4 min.
For `NC(Cc1ccccc1)C(=O)O` (stereo not drawn), the LC retention time was 5.95 min.
For `O=C(O)C1OC(Oc2c(-c3ccc(O)cc3)oc3cc(O)cc(O)c3c2=O)C(O)C(O)C1O` (stereo not drawn), the LC retention time was 20.2 min.
`O=c1c(O)c(-c2ccc(O)c(O)c2)oc2cc(O)cc(O)c12` gave an LC retention time of 20.8 min.
With `O=C1c2c(O)cc(O)cc2OC(c2ccc(O)cc2)C1O` (stereo not drawn) the LC retention time was 18.6 min.
`O=C(C=Cc1ccc(O)c(O)c1)OC(C(=O)O)C(O)C(=O)O` (stereo not drawn) showed an LC retention time of 7.71 min.
For `COc1cc(-c2[o+]c3cc(O)cc(O)c3cc2OC2OC(CO)C(O)C(O)C2O)cc(O)c1O` (stereo not drawn), the LC retention time was 13.3 min.
Work on `CC(=O)OCC1OC(Oc2cc3c(O)cc(O)cc3[o+]c2-c2cc(O)c(O)c(O)c2)C(O)C(O)C1O` (stereo not drawn) yielded an LC retention time of 16.9 min.
`COc1cc(-c2[o+]c3cc(O)cc(O)c3cc2OC2OC(COC(C)=O)C(O)C(O)C2O)cc(OC)c1O` (stereo not drawn) gave an LC retention time of 19.6 min.
Compound `O=C(O)C1CCCN1` (stereo not drawn) has an LC retention time of 1.49 min.
`CCOC(=O)c1cc(O)c(O)c(O)c1` gave an LC retention time of 14.2 min.
Work on `CC(C)(CO)C(O)C(=O)NCCC(=O)O` (stereo not drawn) yielded an LC retention time of 7.04 min.
In the case of `COc1cc(-c2[o+]c3cc(O)cc(O)c3cc2OC2OC(COC(=O)C=Cc3ccc(O)cc3)C(O)C(O)C2O)cc(OC)c1O` (stereo not drawn), the LC retention time is reported as 20.3 min.
Work on `O=C(OC1Cc2c(O)cc(O)cc2OC1c1cc(O)c(O)c(O)c1)c1cc(O)c(O)c(O)c1` (stereo not drawn) yielded an LC retention time of 15.2 min.
Work on `Cc1cc2nc3c(=O)[nH]c(=O)nc-3n(CC(O)C(O)C(O)CO)c2cc1C` (stereo not drawn) yielded an LC retention time of 14.6 min.
With `O=c1c(OC2OC(CO)C(O)C(O)C2O)c(-c2cc(O)c(O)c(O)c2)oc2cc(O)cc(O)c12` (stereo not drawn) the LC retention time was 17 min.
`CC(=O)OCC1OC(Oc2cc3c(O)cc(O)cc3[o+]c2-c2ccc(O)c(O)c2)C(O)C(O)C1O` (stereo not drawn) showed an LC retention time of 18.1 min.
`COc1cc(-c2[o+]c3cc(O)cc(O)c3cc2OC2OC(COC(C)=O)C(O)C(O)C2O)ccc1O` (stereo not drawn) gave an LC retention time of 19.5 min.
Compound `Oc1ccc(C=Cc2cc(O)cc(O)c2)cc1` has an LC retention time of 20.4 min.
In the case of `COc1cc(-c2[o+]c3cc(O)cc(O)c3cc2OC2OC(CO)C(O)C(O)C2O)cc(OC)c1O` (stereo not drawn), the LC retention time is reported as 14.8 min.
In the case of `CC(C=CC1(O)C(C)=CC(=O)CC1(C)C)=CC(=O)O` (stereo not drawn), the LC retention time is reported as 20.6 min.
For `O=C(O)C1OC(Oc2c(-c3cc(O)c(O)c(O)c3)oc3cc(O)cc(O)c3c2=O)C(O)C(O)C1O` (stereo not drawn), the LC retention time was 16.6 min.
For `O=c1c(OC2OC(CO)C(O)C(O)C2O)c(-c2ccc(O)cc2)oc2cc(O)cc(O)c12` (stereo not drawn), the LC retention time was 20.2 min.
`NC(Cc1c[nH]c2ccccc12)C(=O)O` (stereo not drawn) gave an LC retention time of 8.26 min.
For `O=C(O)C(O)Cc1c[nH]c2ccccc12` (stereo not drawn), the LC retention time was 15.3 min.
Compound `NC(Cc1ccc(O)cc1)C(=O)O` (stereo not drawn) has an LC retention time of 4.05 min.
With `COc1cc(-c2oc3cc(=O)cc4oc(O)c(C=[OH+])c(c2OC2OC(CO)C(O)C(O)C2O)c43)cc(OC)c1O` (stereo not drawn) the LC retention time was 18.6 min.
`COc1cc(-c2oc3cc(O)cc(O)c3c(=O)c2O)cc(O)c1O` showed an LC retention time of 20.9 min.
Compound `CCOC(=O)C=Cc1ccc(O)c(O)c1` has an LC retention time of 20.7 min.
For `O=C(O)c1cc(O)c(O)c(O)c1`, the LC retention time was 6.83 min.
Compound `O=c1c(O)c(-c2ccc(O)cc2)oc2cc(O)cc(O)c12` has an LC retention time of 21.2 min.
For `COc1cc(C=CC(=O)OC(C(=O)O)C(O)C(=O)O)ccc1O` (stereo not drawn), the LC retention time was 10.9 min.
With `O=c1cc2oc(-c3ccc(O)c(O)c3)c(OC3OC(COC(=[OH+])C=Cc4ccc(O)cc4)C(O)C(O)C3O)cc-2c(O)c1` (stereo not drawn) the LC retention time was 20.2 min.
In the case of `COc1cc(-c2[o+]c3cc(O)cc(O)c3cc2OC2OC(COC(=O)C=Cc3ccc(O)cc3)C(O)C(O)C2O)ccc1O` (stereo not drawn), the LC retention time is reported as 20.4 min.
Work on `COc1cc(-c2oc3cc(O)cc(O)c3c(=O)c2OC2OC(CO)C(O)C(O)C2O)cc(OC)c1O` (stereo not drawn) yielded an LC retention time of 20.4 min.
For `NC(CCC(=O)NC(CS)C(=O)NCC(=O)O)C(=O)O` (stereo not drawn), the LC retention time was 2.46 min.
For `O=S(=O)(O)c1[nH]c2ccccc2c1CCO`, the LC retention time was 10.5 min.
Work on `COc1cc(-c2[o+]c3cc(O)cc(O)c3cc2OC2OC(COC(=O)C=Cc3ccc(O)cc3)C(O)C(O)C2O)cc(O)c1O` (stereo not drawn) yielded an LC retention time of 20.2 min.
`COc1cc(-c2oc3cc(O)cc(O)c3c(=O)c2OC2OC(CO)C(O)C(O)C2O)cc(O)c1O` (stereo not drawn) showed an LC retention time of 19.6 min.
`O=c1[nH]c(=O)c2[nH]cnc2[nH]1` gave an LC retention time of 3.94 min.
`O=C1c2c(O)cc(O)cc2OC(c2ccc(O)c(OC3OC(C(=O)O)C(O)C(O)C3O)c2)C1O` (stereo not drawn) showed an LC retention time of 19 min.
`COc1cc(-c2[o+]c3cc(O)cc(O)c3cc2OC2OC(CO)C(O)C(O)C2O)ccc1O` (stereo not drawn) gave an LC retention time of 14.6 min.
Compound `Oc1cc(O)c2c(c1)OC1(c3ccc(O)c(O)c3)Oc3cc(O)c4c(c3C2C1O)OC(c1ccc(O)c(O)c1)C(O)C4` (stereo not drawn) has an LC retention time of 8.34 min.
In the case of `COc1cc(-c2oc3cc(O)cc(O)c3c(=O)c2O)ccc1O`, the LC retention time is reported as 21.2 min.
Work on `OCC1OC(Oc2cc3c(O)cc(O)cc3[o+]c2-c2cc(O)c(O)c(O)c2)C(O)C(O)C1O` (stereo not drawn) yielded an LC retention time of 11.3 min.
With `O=C(OC1Cc2c(O)cc(O)cc2OC1c1ccc(O)c(O)c1)c1cc(O)c(O)c(O)c1` (stereo not drawn) the LC retention time was 14.4 min.
For `CC(C)CC(N)C(=O)O` (stereo not drawn), the LC retention time was 4.21 min.
In the case of `COc1cc(-c2oc3cc(=[OH+])cc4occc(c2OC2OC(CO)C(O)C(O)C2O)c43)cc(OC)c1O` (stereo not drawn), the LC retention time is reported as 17.7 min.
`COc1cc(-c2oc3cc(O)cc(O)c3c(=O)c2OC2OC(CO)C(O)C(O)C2O)ccc1O` (stereo not drawn) gave an LC retention time of 20.3 min.
